Assay results reported in ChEMBL document CHEMBL4354822, “Ligand-Based Design of Nondimethylphenyl-Diarylpyrimidines with Improved Metabolic Stability, Safety, and Oral Pharmacokinetic Profiles” (J Med Chem, 2019).

Tests used:
[1] = test system: MT4; test: Cytotoxicity against human MT4 cells assessed as reduction in cell viability incubated for 5 days by MTT assay; assay type: functional; settings: MT4, 120 h
[2] = Aqueous solubility of compound at 2 mg measured for 24 hrs by HPLC analysis; assay type: physicochemical; settings: aqueous medium
[3] = Selectivity index, ratio of CC50 for human MT4 cells to EC50 for antiviral activity against HIV1 3B infected in human MT4 cells incubated for 5 days by MTT assay; assay type: toxicity, cell-based; settings: MT4 cells (uninfected for CC50; HIV-1 3B infected for EC50)
[4] = test system: Human immunodeficiency virus 1; test: Antiviral activity against HIV1 3B infected in human MT4 cells incubated assessed as reduction in virus-induced cytopathic effect for 5 days by MTT assay; assay type: functional, organism-based; settings: Human immunodeficiency virus 1, 3B, MT4, 120 h
[5] = test system: Human immunodeficiency virus 1; test: Antiviral activity against HIV1 harboring reverse transcriptase Y188L mutant infected in human MT4 cells assessed as reduction in virus-induced cytopathic effect incubated for 5 days by MTT assay; assay type: functional, organism-based; settings: Human immunodeficiency virus 1, MT4, 120 h
[6] = molecular target: Human immunodeficiency virus type 1 reverse transcriptase (Human immunodeficiency virus 1, UniProt Q72547); test: Inhibition of recombinant wild type HIV1 reverse transcriptase p66/p51 incubated for 40 mins by picogreen dye-based spectrofluorometric analysis
[7] = test system: Human immunodeficiency virus 1; test: Antiviral activity against HIV1 harboring reverse transcriptase K103N mutant infected in human MT4 cells assessed as reduction in virus-induced cytopathic effect incubated for 5 days by MTT assay; assay type: functional, organism-based; settings: Human immunodeficiency virus 1, MT4, 120 h
[8] = test system: Human immunodeficiency virus 1; test: Antiviral activity against HIV1 harboring reverse transcriptase Y181C mutant infected in human MT4 cells assessed as reduction in virus-induced cytopathic effect incubated for 5 days by MTT assay; assay type: functional, organism-based; settings: Human immunodeficiency virus 1, MT4, 120 h
[9] = test system: Human immunodeficiency virus 1; test: Antiviral activity against HIV1 harboring reverse transcriptase E138K mutant infected in human MT4 cells assessed as reduction in virus-induced cytopathic effect incubated for 5 days by MTT assay; assay type: functional, organism-based; settings: Human immunodeficiency virus 1, MT4, 120 h
[10] = test system: Human immunodeficiency virus 1; test: Antiviral activity against HIV1 harboring reverse transcriptase L100I mutant infected in human MT4 cells assessed as reduction in virus-induced cytopathic effect incubated for 5 days by MTT assay; assay type: functional, organism-based; settings: Human immunodeficiency virus 1, MT4, 120 h
[11] = Oral bioavailability in Sprague-Dawley rat at 1 mg/kg measured after 24 hrs by LCMS analysis; assay type: ADME, organism-based; settings: in vivo
[12] = MRTinfinity in Sprague-Dawley rat at 1 mg/kg, iv measured after 24 hrs by LCMS analysis; assay type: ADME, organism-based; settings: in vivo
[13] = Oral bioavailability in Sprague-Dawley rat at 10 mg/kg measured after 24 hrs by LCMS analysis; assay type: ADME, organism-based; settings: in vivo
[14] = Cmax in Sprague-Dawley rat at 5 mg/kg, po via gavage administration measured after 24 hrs by LCMS analysis; assay type: ADME, organism-based; parameters: dose 5 mg/kg, route oral; settings: in vivo
[15] = AUCinfinity in Sprague-Dawley rat at 10 mg/kg, po via gavage administration measured after 24 hrs by LCMS analysis; assay type: ADME, organism-based; parameters: dose 10 mg/kg, time infinity, route oral; settings: in vivo
[16] = AUC in Sprague-Dawley rat at 1 mg/kg, iv measured after 24 hrs by LCMS analysis; assay type: ADME, organism-based; parameters: time < 24 hr, dose 1 mg/kg, route intravenous; settings: in vivo
[17] = Acute toxicity in mouse assessed as change in kidney at 2 mg/kg, ig measured up to 14 days by H and E staining based assay; assay type: organism-based; settings: in vivo, po, 336 h
[18] = Acute toxicity in mouse assessed as change in lung at 2 mg/kg, ig measured up to 14 days by H and E staining based assay; assay type: organism-based; settings: in vivo, po, 336 h
[19] = Half life in Sprague-Dawley rat at 10 mg/kg, po via gavage administration measured after 24 hrs by LCMS analysis; assay type: ADME, organism-based; settings: in vivo
[20] = Oral bioavailability in Sprague-Dawley rat at 5 mg/kg measured after 24 hrs by LCMS analysis; assay type: ADME, organism-based; settings: in vivo
[21] = Acute toxicity in mouse assessed as change in liver at 2 mg/kg, ig measured up to 14 days by H and E staining based assay; assay type: organism-based; settings: in vivo, po, 336 h
[22] = Acute toxicity in mouse assessed as mortality at 2 mg/kg, ig measured up to 14 days; assay type: organism-based; settings: in vivo, po, 336 h
[23] = Tmax in Sprague-Dawley rat at 10 mg/kg, po via gavage administration measured after 24 hrs by LCMS analysis; assay type: ADME, organism-based; settings: in vivo
[24] = Intrinsic clearance in rat liver microsomes assessed per mg protein at 1 uM measured up to 45 mins in presence of NADPH by LC/MS/MS analysis; assay type: ADME, Microsome; settings: microsomes, 0.75 h, 1 µM
[25] = AUC in Sprague-Dawley rat at 10 mg/kg, po via gavage administration measured after 24 hrs by LCMS analysis; assay type: ADME, organism-based; parameters: dose 10 mg/kg, time < 24 hr, route oral; settings: in vivo
[26] = Acute toxicity in mouse assessed as change in heart at 2 mg/kg, ig measured up to 14 days by H and E staining based assay; assay type: organism-based; settings: in vivo, po, 336 h
[27] = MRTinfinity in Sprague-Dawley rat at 5 mg/kg, po via gavage administration measured after 24 hrs by LCMS analysis; assay type: ADME, organism-based; settings: in vivo
[28] = AUCinfinity in Sprague-Dawley rat at 1 mg/kg, iv measured after 24 hrs by LCMS analysis; assay type: ADME, organism-based; parameters: dose 1 mg/kg, route intravenous, time infinity; settings: in vivo
[29] = Half life in Sprague-Dawley rat at 1 mg/kg, iv measured after 24 hrs by LCMS analysis; assay type: ADME, organism-based; settings: in vivo
[30] = Half life in Sprague-Dawley rat at 5 mg/kg, po via gavage administration measured after 24 hrs by LCMS analysis; assay type: ADME, organism-based; settings: in vivo
[31] = Metabolic stability in human liver microsomes at 1 uM measured up to 45 mins in presence of NADPH by LC/MS/MS analysis; assay type: ADME, Microsome
[32] = Acute toxicity in mouse assessed as change in brain at 2 mg/kg, ig measured up to 14 days by H and E staining based assay; assay type: organism-based; settings: in vivo, po, 336 h
[33] = Metabolic stability in rat liver microsomes at 1 uM measured up to 45 mins in presence of NADPH by LC/MS/MS analysis; assay type: ADME, Microsome
[34] = Cmax in Sprague-Dawley rat at 10 mg/kg, po via gavage administration measured after 24 hrs by LCMS analysis; assay type: ADME, organism-based; parameters: dose 10 mg/kg, route oral; settings: in vivo
[35] = Acute toxicity in mouse assessed as change in behavior at 2 mg/kg, ig measured up to 14 days; assay type: organism-based; settings: in vivo, po, 336 h
[36] = AUCinfinity in Sprague-Dawley rat at 5 mg/kg, po via gavage administration measured after 24 hrs by LCMS analysis; assay type: ADME, organism-based; parameters: dose 5 mg/kg, route oral, time infinity; settings: in vivo
[37] = Intrinsic clearance in human liver microsomes assessed per mg protein at 1 uM measured up to 45 mins in presence of NADPH by LC/MS/MS analysis; assay type: ADME, Microsome; settings: read-out: CLH
[38] = Acute toxicity in mouse assessed as change in body weight at 2 mg/kg, ig measured up to 14 days; assay type: organism-based; settings: in vivo, po, 336 h
[39] = AUC in Sprague-Dawley rat at 5 mg/kg, po via gavage administration measured after 24 hrs by LCMS analysis; assay type: ADME, organism-based; parameters: time < 24 hr, dose 5 mg/kg, route oral; settings: in vivo
[40] = Tmax in Sprague-Dawley rat at 5 mg/kg, po via gavage administration measured after 24 hrs by LCMS analysis; assay type: ADME, organism-based; settings: in vivo
[41] = MRTinfinity in Sprague-Dawley rat at 10 mg/kg, po via gavage administration measured after 24 hrs by LCMS analysis; assay type: ADME, organism-based; settings: in vivo
[42] = test system: Human immunodeficiency virus 1; test: Ratio of EC50 for test compound to EC50 for 4-[4-[[2-(4-cyanoanilino)pyrimidin-4-yl]amino]-3,5-dimethyl-phenyl]benzonitrile against HIV1 3B infected in human MT4 cells incubated for 5 days by MTT assay; assay type: functional

Compound: N#Cc1ccc(Nc2nccc(Nc3c(F)cc(-c4ccc(C#N)cc4)cc3F)n2)cc1
- CC50 [1]: > 295000 nM
- solubility at 24 h [2]: < 1 µg/mL
- selectivity ratio at 120 h [3]: > 238000
- EC50 [4]: 1.3 nM
- EC50 [5]: 130 nM
- IC50 [6]: 4.7 nM
- EC50 [7]: 2.6 nM
- EC50 [8]: 6.1 nM
- EC50 [9]: 1.9 nM
- EC50 [10]: 10.8 nM

Compound: Cc1cc(/C=C/C#N)cc(C)c1Nc1ccnc(Nc2ccc(C#N)cc2)n1.Cl [RILPIVIRINE HYDROCHLORIDE]
- bioavailability [11]: 32%

Compound: Cl.N#Cc1ccc(Nc2nccc(Nc3c(F)cc(-c4ccc(C#N)cc4)cc3F)n2)cc1
- solubility at 24 h [2]: 5.6 µg/mL
- MRT inf [12]: 4.69 h
- bioavailability [13]: 33.6%
- Cmax [14]: 887 ng/mL
- AUC(0-inf) [15]: 12200 ng·h/mL
- AUC at 24 h [16]: 3560 ng·h/mL
- Activity [17]: Non-Toxic
- Activity [18]: Non-Toxic
- half-life [19]: 3.18 h
- bioavailability [20]: 44%
- Activity [21]: Non-Toxic
- Activity [22]: Non-Toxic
- Tmax [23]: 6.67 h
- CLH [24]: 44.3 µL/min/mg
- AUC at 24 h [25]: 12100 ng·h/mL
- Activity [26]: Non-Toxic
- MRT inf [27]: 8.37 h
- AUC(0-inf) [28]: 3640 ng·h/mL
- half-life [29]: 4.18 h
- half-life [30]: 3.23 h
- half-life at 1 µM [31]: 0.527 h
- k el at 0.75 h, 1 µM [31]: 0.000365 s⁻¹
- Activity [32]: Non-Toxic
- k el at 0.75 h, 1 µM ([33]; liver microsomes): 0.000262 s⁻¹
- t1/2 ([33]; microsomes, 0.75 h, 1 µM): 0.738 h
- Cmax [34]: 1230 ng/mL
- Activity [35]: Non-Toxic
- AUC(0-inf) [36]: 8000 ng·h/mL
- microsomal CLint at 1 µM [37]: 21.9 µL/min/mg
- Activity [38]: Non-Toxic
- AUC at 24 h [39]: 7890 ng·h/mL
- Tmax [40]: 5.33 h
- MRT inf [41]: 8.27 h

Compound: CC(=O)O.N#Cc1ccc(Nc2nccc(Nc3c(F)cc(-c4ccc(C#N)cc4)cc3F)n2)cc1
- solubility at 24 h [2]: 0.34 µg/mL

Compound: N#Cc1ccc(Nc2nc(Oc3ccc(-c4ccc(C#N)cc4)c(F)c3F)c3sccc3n2)cc1
- Ratio EC50 [42]: 14
